The values below come from US20250289804A1, “SUBSTITUTED INDOLE COMPOUNDS AND METHODS OF USE THEREOF” (NOVARTIS PHARMA AG, priority 2021, published 2025).

Test [1] addresses human C3bBb (Homo sapiens (Human), UniProt P00751). The experiment in a line: Human C3bBb enzyme assay (C3a generation from C3, ELISA). As to conditions: starred values: assay conducted with 1 nM C3b:Bb enzyme; read-out: Human C3b:Bb IC50 Avg. In kind it is biochemical. An outline of the steps: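 C3bBb was preformed from human C3b, CFB and CFD at 1 μM each (30 min, RT) in PBS pH 7.4 with 100 μM NiCl2 and 0.05% CHAPS. Then 3 nM complex with 1 μM human C3 was incubated with compound for 1 h at RT. C3a was quantified by ELISA against a standard curve, and IC50 came from a 10-point 4-parameter fit.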
(ELISA stands for enzyme-linked immunosorbent assay.)

Test [2] has as its system MAC formation in normal human serum. The experiment in a line: Human serum MAC formation assay (zymosan-coated plates, 50% normal human serum). As to conditions: 50% normal human serum with EGTA, 37° C. 30 minutes. An outline of the steps: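 Compounds preincubated 15 min at RT with 50% normal human serum in gelatin buffer plus 20 mM EGTA, then complement activated 30 min at 37 °C on zymosan-coated plates. C9 neoepitope ELISA, fluorogenic readout. Percent inhibition vs EDTA-serum baseline and EGTA-serum maximum; IC50 from 4-parameter fit of 10-point curves.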

Chain of human C3bBb (P00751 260-764): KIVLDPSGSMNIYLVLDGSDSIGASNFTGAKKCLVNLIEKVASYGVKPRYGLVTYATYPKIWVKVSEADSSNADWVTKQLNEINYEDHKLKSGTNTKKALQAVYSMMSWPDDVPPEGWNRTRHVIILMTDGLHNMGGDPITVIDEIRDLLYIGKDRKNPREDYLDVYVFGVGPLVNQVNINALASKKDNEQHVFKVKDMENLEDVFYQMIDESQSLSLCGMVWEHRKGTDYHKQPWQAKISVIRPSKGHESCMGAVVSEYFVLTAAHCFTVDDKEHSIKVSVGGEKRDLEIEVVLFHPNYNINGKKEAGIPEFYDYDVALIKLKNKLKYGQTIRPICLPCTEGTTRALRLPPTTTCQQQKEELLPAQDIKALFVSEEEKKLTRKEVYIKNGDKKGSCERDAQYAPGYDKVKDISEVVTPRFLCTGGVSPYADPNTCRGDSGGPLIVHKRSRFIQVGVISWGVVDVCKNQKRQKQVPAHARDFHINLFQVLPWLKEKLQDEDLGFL
Chain of human C3bBb (P01024 23-667 partner): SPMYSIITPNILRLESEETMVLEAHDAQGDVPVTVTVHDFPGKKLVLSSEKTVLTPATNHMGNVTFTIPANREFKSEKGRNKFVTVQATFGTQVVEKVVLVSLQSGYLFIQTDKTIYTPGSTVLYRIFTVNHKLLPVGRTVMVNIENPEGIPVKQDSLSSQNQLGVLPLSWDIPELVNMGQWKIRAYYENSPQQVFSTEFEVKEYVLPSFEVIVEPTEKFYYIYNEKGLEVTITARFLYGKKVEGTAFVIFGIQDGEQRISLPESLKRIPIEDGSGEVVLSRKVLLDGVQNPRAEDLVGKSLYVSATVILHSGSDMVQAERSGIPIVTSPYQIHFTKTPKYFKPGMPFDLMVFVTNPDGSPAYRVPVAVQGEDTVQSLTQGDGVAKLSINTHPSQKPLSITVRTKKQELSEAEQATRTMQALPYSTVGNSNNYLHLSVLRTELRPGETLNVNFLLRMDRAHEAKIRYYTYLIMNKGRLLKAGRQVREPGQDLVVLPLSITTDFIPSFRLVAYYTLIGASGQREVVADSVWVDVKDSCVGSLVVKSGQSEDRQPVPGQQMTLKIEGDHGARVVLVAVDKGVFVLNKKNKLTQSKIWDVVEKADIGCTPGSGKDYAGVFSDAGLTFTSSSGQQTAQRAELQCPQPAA
Chain of human C3bBb (P01024 749-1663 partner): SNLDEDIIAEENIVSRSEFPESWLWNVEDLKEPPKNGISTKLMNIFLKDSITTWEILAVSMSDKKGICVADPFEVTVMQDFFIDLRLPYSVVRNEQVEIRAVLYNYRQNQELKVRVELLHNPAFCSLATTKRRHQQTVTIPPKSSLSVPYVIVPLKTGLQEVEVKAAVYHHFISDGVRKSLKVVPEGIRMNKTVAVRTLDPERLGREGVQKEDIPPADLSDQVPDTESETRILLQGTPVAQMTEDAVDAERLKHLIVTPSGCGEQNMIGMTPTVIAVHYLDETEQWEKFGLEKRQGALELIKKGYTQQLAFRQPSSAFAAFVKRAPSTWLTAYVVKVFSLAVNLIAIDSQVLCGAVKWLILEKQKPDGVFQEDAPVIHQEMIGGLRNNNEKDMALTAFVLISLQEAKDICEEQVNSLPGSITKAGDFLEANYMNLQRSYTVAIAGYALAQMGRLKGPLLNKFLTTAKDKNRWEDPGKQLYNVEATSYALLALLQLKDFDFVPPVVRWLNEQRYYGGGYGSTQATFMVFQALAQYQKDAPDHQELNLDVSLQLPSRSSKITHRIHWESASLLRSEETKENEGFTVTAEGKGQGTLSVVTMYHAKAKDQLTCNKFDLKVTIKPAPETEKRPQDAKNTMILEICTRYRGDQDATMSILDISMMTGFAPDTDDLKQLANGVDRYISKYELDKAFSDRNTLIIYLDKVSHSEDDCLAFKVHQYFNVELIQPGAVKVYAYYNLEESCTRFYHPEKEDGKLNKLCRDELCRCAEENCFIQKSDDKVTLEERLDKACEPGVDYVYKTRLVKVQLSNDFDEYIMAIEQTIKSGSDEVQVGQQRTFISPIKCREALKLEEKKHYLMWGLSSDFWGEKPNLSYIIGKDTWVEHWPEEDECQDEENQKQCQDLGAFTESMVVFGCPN

Regarding `COc1cc(C)c2[nH]ccc2c1CN1CC[C@]2(C[C@H]1c1ccc(C(=O)O)cc1)C[C@@H](F)C2` [Example 61, 4-((2S,4r,6S)-2-fluoro-7-((5-methoxy-7-methyl-1H-indol-4-yl)methyl)-7-azaspiro[3.5]nonan-6-yl)benzoic acid and 4-((2R,4s,6S)-2-fluoro-7-((5-methoxy-7-methyl-1H-indol-4-yl)methyl)-7-azaspiro[3.5]nonan-6-yl)benzoic acid], the IC50 (commonly the concentration at which inhibition is half-maximal) was below 10 nM in test [1] and below 100 nM in test [2].
The like results for `COc1cc(C)c2[nH]ccc2c1CN1CCN(CC(F)(F)F)C[C@H]1c1ccc(C(=O)O)cc1` [Example 65, (R)-4-(1-((5-methoxy-7-methyl-1H-indol-4-yl)methyl)-4-(2,2,2-trifluoroethyl)piperazin-2-yl)benzoic acid] were, in that order, 10 to 25 nM and 200 to 300 nM.
For `COc1cc(C)c2[nH]ccc2c1CN1CCN(CC(F)F)C[C@H]1c1ccc(C(=O)O)cc1` [Example 66, (R)-4-(4-(2,2-difluoroethyl)-1-((5-methoxy-7-methyl-1H-indol-4-yl)methyl)piperazin-2-yl)benzoic acid], in that order: 25 to 50 nM and 100 to 200 nM.
On to `COc1cc(C)c2[nH]ccc2c1CN1CCN(CC2CC(F)(F)C2)C[C@H]1c1ccc(C(=O)O)cc1` [Example 67, (R)-4-(4-((3,3-difluorocyclobutyl)methyl)-1-((5-methoxy-7-methyl-1H-indol-4-yl)methyl)piperazin-2-yl)benzoic acid], for which the IC50 in test [1] is 50 to 100 nM; in test [2] it was 300 to 500 nM.
For `COc1cc(C)c2[nH]ccc2c1CN1CCN(CCC(F)(F)F)C[C@H]1c1ccc(C(=O)O)cc1` [Example 68, (R)-4-(1-((5-methoxy-7-methyl-1H-indol-4-yl)methyl)-4-(3,3,3-trifluoropropyl)piperazin-2-yl)benzoic acid], in that order: below 10 nM and 100 to 200 nM.
For `COc1cc(C)c2[nH]ccc2c1CN1CCN(CC2(F)COC2)C[C@H]1c1ccc(C(=O)O)cc1` [Example 69, (R)-4-(4-((3-fluorooxetan-3-yl)methyl)-1-((5-methoxy-7-methyl-1H-indol-4-yl)methyl)piperazin-2-yl)benzoic acid], in that order: 50 to 100 nM and 100 to 200 nM.
For the compound `COc1cc(C)c2[nH]ccc2c1CN1CCN(CCF)C[C@H]1c1ccc(C(=O)O)cc1` [Example 70, (R)-4-(4-(2-fluoroethyl)-1-((5-methoxy-7-methyl-1H-indol-4-yl)methyl)piperazin-2-yl)benzoic acid], the IC50 in test [1] lay in the range of 25 to 50 nM; in test [2], 200 to 300 nM.
Take `COc1cc(C)c2[nH]ccc2c1CN1CC[C@H](N2CC(OC(F)(F)F)C2)C[C@H]1c1ccc(C(=O)O)cc1` [Example 72, 4-((2S,4S)-1-((5-methoxy-7-methyl-1H-indol-4-yl)methyl)-4-(3-(trifluoromethoxy)azetidin-1-yl)piperidin-2-yl)benzoic acid]: the IC50 lay within 25 to 50 nM in test [1] and 200 to 300 nM in test [2].
As for `COc1cc(C)c2[nH]ccc2c1CN1CC[C@H](N2CC(C#N)C2)C[C@H]1c1ccc(C(=O)O)cc1` [Example 73, 4-((2S,4S)-4-(3-cyanoazetidin-1-yl)-1-((5-methoxy-7-methyl-1H-indol-4-yl)methyl)piperidin-2-yl)benzoic acid], the values for the IC50 in test [1] and in test [2] were below 10 nM and 100 to 200 nM, respectively.
Consider `COc1cc(C)c2[nH]ccc2c1CN1CC[C@H](N2CC(C(F)F)C2)C[C@H]1c1ccc(C(=O)O)cc1` [Example 74, 4-((2S,4S)-4-(3-(difluoromethyl)azetidin-1-yl)-1-((5-methoxy-7-methyl-1H-indol-4-yl)methyl)piperidin-2-yl)benzoic acid], for which the IC50 is below 10 nM in test [1] and 100 to 200 nM in test [2].
